We go through 21 compounds from patent US20220162191A1, “SMALL MOLECULE MODULATORS OF IL-17” (LEO PHARMA A/S, priority 2019, published 2022).

In the test the target is T1, human IL-17AA (Homo sapiens, UniProt Q16552).
T1 construct: host or cells: HEK (human embryonic kidney) cells
T1 sequence (Q16552 24-155) 1: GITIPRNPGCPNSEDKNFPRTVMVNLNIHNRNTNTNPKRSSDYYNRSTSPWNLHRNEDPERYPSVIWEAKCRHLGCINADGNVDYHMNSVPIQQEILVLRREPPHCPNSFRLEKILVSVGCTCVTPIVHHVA
T1 sequence (Q16552 24-155) 2: T1 sequence (Q16552 24-155) 1
The test can be described thus: IL-8 release assay in human epithelial keratinocytes adult (HEKa). It is filed as cell-based. The note with it: 3 ng/ml human IL-17AA + 10 ng/ml human TNFalpha, 68-72 h, IL-8 by HTRF, read-out: Rel EC50 L-8 release assay. Put shortly:
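IL-8 secretion, quantified by HTRF (665/620 nm) as percent of controls, served as the readout after 68–72 h culture of HEKa cells with compound plus IL-17AA (3 ng/ml final) and TNF-alpha (10 ng/ml final). Four-parameter logistic curves gave relative IC50 and Emax.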
In general terms: TR-FRET usually uses a lanthanide donor and a delayed reading to cut background.
On to `Cc1n[nH]c(C)c1-c1ccc(NC(=O)[C@@H](NC(=O)C2(F)CC2)[C@@H]2CCc3ccc(-c4cc(N5CC(F)(F)C5)ncn4)cc32)cc1` [Example 375, N-[(1S)-1-[(1R)-6-[6-(3,3-difluoroazetidin-1-yl)pyrimidin-4-yl]indan-1-yl]-2-[4-(3,5-dimethyl-1H-pyrazol-4-yl)anilino]-2-oxo-ethyl]-1-fluoro-cyclopropanecarboxamide], for which the EC50 was in the range of 100 to 1000 nM.
As for `Cc1n[nH]c(C)c1-c1ccc(NC(=O)[C@@H](NC(=O)C2(F)CC2)[C@@H]2CCc3ccc(-c4cc(N5CC(F)C5)ncn4)cc32)cc1` [Example 376, N-[(1S)-2-[4-(3,5-dimethyl-1H-pyrazol-4-yl)anilino]-1-[(1R)-6-[6-(3-fluoroazetidin-1-yl)pyrimidin-4-yl]indan-1-yl]-2-oxo-ethyl]-1-fluoro-cyclopropanecarboxamide], the EC50 fell in the range of 100 to 1000 nM.
With `Cc1n[nH]c(C)c1-c1ccc(NC(=O)[C@@H](NC(=O)C2(F)CC2)[C@@H]2CCc3ccc(-c4cncc(N5C[C@@H]6C[C@H]5CO6)c4)cc32)cc1` [Example 377, N-[(1S)-2-[4-(3,5-dimethyl-1H-pyrazol-4-yl)anilino]-1-[(1R)-6-[5-[(1S,4S)-2-oxa-5-azabicyclo[2.2.1]heptan-5-yl]-3-pyridyl]indan-1-yl]-2-oxo-ethyl]-1-fluoro-cyclopropanecarboxamide] the figure was less than 100 nM.
Next, `Cc1cnn(C)c1-c1ccc(NC(=O)[C@@H](NC(=O)c2ccnn2C)[C@@H]2CCc3ccc(-c4ccnc(N5C[C@@H]6C[C@H]5CO6)c4)cc32)cc1` [Example 378, N-[(1S)-2-[4-(2,4-dimethylpyrazol-3-yl)anilino]-1-[(1R)-6-[2-[(1S,4S)-2-oxa-5-azabicyclo[2.2.1]heptan-5-yl]-4-pyridyl]indan-1-yl]-2-oxo-ethyl]-2-methyl-pyrazole-3-carboxamide]: less than 100 nM; `Cc1cnn(C)c1-c1ccc(NC(=O)[C@@H](NC(=O)C2(F)CC2)[C@@H]2CCc3ccc(-c4cncc(N5C[C@@H]6C[C@H]5CO6)n4)cc32)cc1` [Example 379, N-[(1S)-2-[4-(2,4-dimethylpyrazol-3-yl)anilino]-1-[(1R)-6-[6-[(1S,4S)-2-oxa-5-azabicyclo[2.2.1]heptan-5-yl]pyrazin-2-yl]indan-1-yl]-2-oxo-ethyl]-1-fluoro-cyclopropanecarboxamide]: less than 100 nM; `Cc1cnn(C)c1-c1ccc(NC(=O)[C@@H](NC(=O)c2ccnn2C)[C@@H]2CCc3ccc(-c4cncc(C5CC5)n4)cc32)cc1` [Example 380, N-[(1S)-1-[(1R)-6-(6-cyclopropylpyrazin-2-yl)indan-1-yl]-2-[4-(2,4-dimethylpyrazol-3-yl)anilino]-2-oxo-ethyl]-2-methyl-pyrazole-3-carboxamide]: 100 to 1000 nM.
`Cc1n[nH]c(C)c1-c1ccc(NC(=O)[C@@H](NC(=O)C2(F)CC2)[C@@H]2CCc3ccc(-c4cnnc(C5CC5)c4)cc32)cc1` [Example 381, N-[(1S)-1-[(1R)-6-(6-cyclopropylpyridazin-4-yl)indan-1-yl]-2-[4-(3,5-dimethyl-1H-pyrazol-4-yl)anilino]-2-oxo-ethyl]-1-fluoro-cyclopropanecarboxamide]: the EC50 is 100 to 1000 nM.
With `Cc1cnn(C)c1-c1ccc(NC(=O)[C@@H](NC(=O)c2ccnn2C)[C@@H]2CCc3ccc(-c4ccnc(C(C)C)n4)cc32)cc1` [Example 382, N-[(1S)-2-[4-(2,4-dimethylpyrazol-3-yl)anilino]-1-[(1R)-6-(2-isopropylpyrimidin-4-yl)indan-1-yl]-2-oxo-ethyl]-2-methyl-pyrazole-3-carboxamide] the figure was 100 to 1000 nM.
With `Cc1cnn(C)c1-c1ccc(NC(=O)[C@@H](NC(=O)C2(F)CC2)[C@@H]2CCc3ccc(-c4cc(N5C[C@@H]6C[C@H]5CO6)cnn4)cc32)cc1` [Example 383, N-[(1S)-2-[4-(2,4-dimethylpyrazol-3-yl)anilino]-1-[(1R)-6-[5-[(1S,4S)-2-oxa-5-azabicyclo[2.2.1]heptan-5-yl]pyridazin-3-yl]indan-1-yl]-2-oxo-ethyl]-1-fluoro-cyclopropanecarboxamide] the figure was more than 1000 nM; with `Cc1n[nH]c(C)c1-c1ccc(NC(=O)[C@@H](NC(=O)C2(F)CC2)[C@@H]2CCc3ccc(-c4cc(C5CC5)cnn4)cc32)cc1` [Example 384, N-[(1S)-1-[(1R)-6-(5-cyclopropylpyridazin-3-yl)indan-1-yl]-2-[4-(3,5-dimethyl-1H-pyrazol-4-yl)anilino]-2-oxo-ethyl]-1-fluoro-cyclopropanecarboxamide], 100 to 1000 nM.
With `Cc1cnn(C)c1-c1ccc(NC(=O)[C@@H](NC(=O)C2(F)CC2)[C@@H]2CCc3ccc(-c4cnnc(C5CC5)c4)cc32)cc1` [Example 385, N-[(1S)-1-[(1R)-6-(6-cyclopropylpyridazin-4-yl)indan-1-yl]-2-[4-(2,4-dimethylpyrazol-3-yl)anilino]-2-oxo-ethyl]-1-fluoro-cyclopropanecarboxamide] the figure was 100 to 1000 nM; with `Cc1cnn(C)c1-c1ccc(NC(=O)[C@@H](NC(=O)c2ccnn2C)[C@@H]2CCc3ccc(-c4cc(N5C[C@@H]6C[C@H]5CO6)ncn4)cc32)cc1` [Example 386, N-[(1S)-2-[4-(2,4-dimethylpyrazol-3-yl)anilino]-1-[(1R)-6-[6-[(1S,4S)-2-oxa-5-azabicyclo[2.2.1]heptan-5-yl]pyrimidin-4-yl]indan-1-yl]-2-oxo-ethyl]-2-methyl-pyrazole-3-carboxamide], 100 to 1000 nM; with `Cc1n[nH]c(C)c1-c1ccc(NC(=O)[C@@H](NC(=O)C2(F)CC2)[C@@H]2CCCc3ccc(-c4ccnc(N5C[C@H]6C[C@@H]5CO6)c4)cc32)cc1` [Example 387, N-[(1S)-2-[4-(3,5-dimethyl-1H-pyrazol-4-yl)anilino]-1-[(1R)-7-[2-[(1R,4R)-2-oxa-5-azabicyclo[2.2.1]heptan-5-yl]-4-pyridyl]tetralin-1-yl]-2-oxo-ethyl]-1-fluoro-cyclopropanecarboxamide], less than 100 nM.
With `Cc1n[nH]c(C)c1-c1ccc(NC(=O)[C@@H](NC(=O)c2ccnn2C)[C@@H]2CCCc3ccc(-c4cccc(CN5CCC5)c4)cc32)cc1` [Example 388, N-[(1S)-1-[(1R)-7-[3-(azetidin-1-ylmethyl)phenyl]tetralin-1-yl]-2-[4-(3,5-dimethyl-1H-pyrazol-4-yl)anilino]-2-oxo-ethyl]-2-methyl-pyrazole-3-carboxamide], the EC50 was less than 100 nM.
Next, `Cc1ncn(C)c1-c1ccc(NC(=O)[C@@H](NC(=O)C2(F)CC2)[C@@H]2CCCc3ccc(-c4ccnc(N5C[C@H]6C[C@@H]5CN6)c4)cc32)cc1` [Example 389, N-[(1S)-1-[(1R)-7-[2-[(1R,4R)-2,5-diazabicyclo[2.2.1]heptan-2-yl]-4-pyridyl]tetralin-1-yl]-2-[4-(3,5-dimethylimidazol-4-yl)anilino]-2-oxo-ethyl]-1-fluoro-cyclopropanecarboxamide]: 100 to 1000 nM; `Cc1n[nH]c(C)c1-c1ccc(NC(=O)[C@@H](NC(=O)C2(F)CC2)[C@@H]2CCCc3ccc(-c4ccc(CN5C[C@H]6C[C@@H]5CO6)cc4)cc32)cc1` [Example 390, N-[(1S)-2-[4-(3,5-dimethyl-1H-pyrazol-4-yl)anilino]-1-[(1R)-7-[4-[[(1R,4R)-2-oxa-5-azabicyclo[2.2.1]heptan-5-yl]methyl]phenyl]tetralin-1-yl]-2-oxo-ethyl]-1-fluoro-cyclopropanecarboxamide]: 100 to 1000 nM; `Cc1n[nH]c(C)c1-c1ccc(NC(=O)[C@@H](NC(=O)C2(F)CC2)[C@@H]2CCCc3ccc(-c4cc(C)c(=O)n(C(C)C)c4)cc32)cc1` [Example 391, N-[(1S)-2-[4-(3,5-dimethyl-1H-pyrazol-4-yl)anilino]-1-[(1R)-7-(1-isopropyl-5-methyl-6-oxo-3-pyridyl)tetralin-1-yl]-2-oxo-ethyl]-1-fluoro-cyclopropanecarboxamide]: less than 100 nM.
In the case of `Cc1cnn(C)c1-c1ccc(NC(=O)[C@@H](NC(=O)C2(F)CC2)[C@@H]2CCCc3ccc(-c4ccnc(N5C[C@@H]6C[C@H]5CN6)c4)cc32)cc1` [Example 392, N-[(1S)-1-[(1R)-7-[2-[(1S,4S)-2,5-diazabicyclo[2.2.1]heptan-2-yl]-4-pyridyl]tetralin-1-yl]-2-[4-(2,4-dimethylpyrazol-3-yl)anilino]-2-oxo-ethyl]-1-fluoro-cyclopropanecarboxamide], the EC50 lay in the range of 100 to 1000 nM.
Next, `Cc1n[nH]c(C)c1-c1ccc(NC(=O)[C@@H](NC(=O)C2(F)CC2)[C@@H]2CCCc3ccc(-c4cnn(C(F)F)c4)cc32)cc1` [Example 393, N-[(1S)-1-[(1R)-7-[1-(difluoromethyl)pyrazol-4-yl]tetralin-1-yl]-2-[4-(3,5-dimethyl-1H-pyrazol-4-yl)anilino]-2-oxo-ethyl]-1-fluoro-cyclopropanecarboxamide]: 100 to 1000 nM; `Cc1n[nH]c(C)c1-c1ccc(NC(=O)[C@@H](NC(=O)c2ccnn2C)[C@@H]2CCCc3ccc(-c4ccnc(N5C[C@H]6C[C@@H]5CO6)c4)cc32)cc1` [Example 394, N-[(1S)-2-[4-(3,5-dimethyl-1H-pyrazol-4-yl)anilino]-1-[(1R)-7-[2-[(1R,4R)-2-oxa-5-azabicyclo[2.2.1]heptan-5-yl]-4-pyridyl]tetralin-1-yl]-2-oxo-ethyl]-2-methyl-pyrazole-3-carboxamide]: less than 100 nM.
Next, `Cc1n[nH]c(C)c1-c1ccc(NC(=O)[C@@H](NC(=O)C2(F)CC2)[C@@H]2CCCc3ccc(-c4cnn(C5CCOCC5)c4)cc32)cc1` [Example 396, N-[(1S)-2-[4-(3,5-dimethyl-1H-pyrazol-4-yl)anilino]-2-oxo-1-[(1R)-7-(1-tetrahydropyran-4-ylpyrazol-4-yl)tetralin-1-yl]ethyl]-1-fluoro-cyclopropanecarboxamide]: less than 100 nM.

Broadly, the EC50 is the concentration that produces a half-maximal response.
